Test results: patent US20220119354A1, “DIAMINO-SUBSTITUTED PYRIDINES AND PYRIMIDINES AS HERBICIDES” (FMC Corporation, priority 2019, published 2022)

Tests used:
Assay type in all cases: in vivo
[1] = system: ragweed (common ragweed, Ambrosia elatior); test: Test A postemergence, ragweed; conditions: 0 to 100 scale
Text: (§1) Seeds of plant species selected from barnyardgrass (Echinochloa crus-galli), kochia (Kochia scoparia), ragweed (common ragweed, Ambrosia elatior), ryegrass, Italian (Lolium multiflorum), foxtail, giant (Setaria faberii), foxtail, green (Setaria viridis), and pigweed (Amaranthus retroflexus) were planted into a blend of loam soil and sand and treated preemergence with a directed soil spray using test chemicals formulated in a non-phytotoxic solvent mixture which included a surfactant.
(§2) At the same time, plants selected from these weed species and also wheat (Triticum aestivum), corn (Zea mays), blackgrass (Alopecurus myosuroides), and galium (catchweed bedstraw, Galium aparine) were planted in pots containing the same blend of loam soil and sand and treated with postemergence applications of test chemicals formulated in the same manner. Plants ranged in height from 2 to 10 cm and were in the one- to two-leaf stage for the postemergence treatment. Treated plants and untreated controls were maintained in a greenhouse for approximately 10 d, after which time all treated plants were compared to untreated controls and visually evaluated for injury. Plant response ratings, summarized in Table A, are based on a 0 to 100 scale where 0 is no effect and 100 is complete control. A dash (-) response means no test result.

[2] = system: foxtail, giant (Setaria faberii); test: Test A postemergence, giant foxtail; conditions: 0 to 100 scale
Text: as §1, §2

[3] = system: ducksalad (Heteranthera limosa); test: Test B flooded paddy test, ducksalad; conditions: Flood, 250 g ai/ha, applied to paddy water, 2-leaf stage, visual evaluation after 13 to 15 d
Description: (§3) Plant species in the flooded paddy test selected from rice (Oryza sativa), sedge, umbrella (small-flower umbrella sedge, Cyperus difformis), ducksalad (Heteranthera limosa), and barnyardgrass (Echinochloa crus-galli) were grown to the 2-leaf stage for testing. At the time of treatment, test pots were flooded to 3 cm above the soil surface, treated by application of test compounds directly to the paddy water, and then maintained at that water depth for the duration of the test. Treated plants and controls were maintained in a greenhouse for 13 to 15 d, after which time all species were compared to controls and visually evaluated. Plant response ratings, summarized in Table B, are based on a scale of 0 to 100 where 0 is no effect and 100 is complete control. A dash (-) response means no test result.

corn (Zea mays) = test: Test A postemergence, corn; conditions: 0 to 100 scale
Text: as §1, §2

rice (Oryza sativa) = test: Test B flooded paddy test, rice; conditions: Flood, 250 g ai/ha, applied to paddy water, 2-leaf stage, visual evaluation after 13 to 15 d
Description: as §3

[4] = system: pigweed (Amaranthus retroflexus); test: Test A preemergence, pigweed; conditions: 0 to 100 scale; for Pigweed plant response rating: 0 is no effect, 100 is complete control
Text: as §1, §2

kochia (Kochia scoparia) [5] = test: Test A postemergence, kochia; conditions: 0 to 100 scale
Text: as §1, §2

kochia (Kochia scoparia) [6] = test: Test A preemergence, kochia; conditions: 0 to 100 scale; for Kochia plant response rating: 0 is no effect, 100 is complete control
Text: as §1, §2

[7] = system: wheat (Triticum aestivum); test: Test A postemergence, wheat; conditions: 0 to 100 scale
Text: as §1, §2

[8] = system: ragweed (common ragweed, Ambrosia elatior); test: Test A preemergence, ragweed; conditions: 0 to 100 scale, 0 is no effect, 100 is complete control
Text: as §1, §2

[9] = system: galium (catchweed bedstraw, Galium aparine); test: Test A postemergence, galium; conditions: 0 to 100 scale
Text: as §1, §2

[10] = system: sedge, umbrella (small-flower umbrella sedge, Cyperus difformis); test: Test B flooded paddy test, umbrella sedge; conditions: Flood, 250 g ai/ha, applied to paddy water, 2-leaf stage, visual evaluation after 13 to 15 d
Description: as §3

[11] = system: foxtail, giant (Setaria faberii); test: Test A preemergence, giant foxtail; conditions: 0 to 100 scale; for Foxtail, Giant plant response rating: 0 is no effect, 100 is complete control
Text: as §1, §2

[12] = system: pigweed (Amaranthus retroflexus); test: Test A postemergence, pigweed; conditions: 0 to 100 scale
Text: as §1, §2

[13] = system: blackgrass (Alopecurus myosuroides); test: Test A postemergence, blackgrass; conditions: 0 to 100 scale
Text: as §1, §2

[14] = system: ryegrass, Italian (Lolium multiflorum); test: Test A preemergence, Italian ryegrass; conditions: 0 to 100 scale; for Ryegrass, Italian plant response rating: 0 is no effect, 100 is complete control
Text: as §1, §2

[15] = system: ryegrass, Italian (Lolium multiflorum); test: Test A postemergence, Italian ryegrass; conditions: 0 to 100 scale
Text: as §1, §2

[16] = system: barnyardgrass (Echinochloa crus-galli); test: Test A preemergence, barnyardgrass; conditions: 0 to 100 scale; for Barnyardgrass plant response rating: 0 is no effect, 100 is complete control
Text: as §1, §2

[17] = system: barnyardgrass (Echinochloa crus-galli); test: Test B flooded paddy test, barnyardgrass; conditions: Flood, 250 g ai/ha, applied to paddy water, 2-leaf stage, visual evaluation after 13 to 15 d
Description: as §3

[18] = system: barnyardgrass (Echinochloa crus-galli); test: Test A postemergence, barnyardgrass; conditions: 0 to 100 scale
Text: as §1, §2

[19] = 125 g ai/ha, 0 no effect, 100 complete control
[20] = 500 g ai/ha, 0 no effect, 100 complete control

SMILES: Cc1ccc2c([C@H](Nc3ncc(C(F)(F)F)c(N)n3)C3CC3)coc2c1 [Compound 90]
- Plant response rating, Ragweed [1, 19]: 30
- Plant response rating, Ragweed [1, 20]: 70
- Plant response rating, Foxtail, Giant [2, 19]: 0
- Plant response rating, Foxtail, Giant [2, 20]: 50
- Plant response rating, Ducksalad (0 to 100 scale, 0 is no effect, 100 is complete control) [3]: 25
- Plant response rating, Corn (corn (Zea mays); [19]): 0
- Plant response rating, Corn (corn (Zea mays); [20]): 0
- Plant response rating, Rice (0 to 100 scale, 0 is no effect, 100 is complete control) (rice (Oryza sativa)): 0
- Pigweed plant response rating ([4]; 125 g ai/ha): 70
- Pigweed plant response rating ([4]; 500 g ai/ha): 100
- Plant response rating, Kochia (kochia (Kochia scoparia) [5]; [19]): 20
- Plant response rating, Kochia (kochia (Kochia scoparia) [5]; [20]): 90
- Kochia plant response rating (kochia (Kochia scoparia) [6]; 125 g ai/ha): 0
- Kochia plant response rating (kochia (Kochia scoparia) [6]; 500 g ai/ha): 90
- Plant response rating, Wheat [7, 19]: 0
- Plant response rating, Wheat [7, 20]: 30
- Ragweed plant response rating ([8]; 125 g ai/ha): 50
- Ragweed plant response rating ([8]; 500 g ai/ha): 100
- Plant response rating, Galium [9, 19]: 40
- Plant response rating, Galium [9, 20]: 70
- Plant response rating, Sedge, Umbrella (0 to 100 scale, 0 is no effect, 100 is complete control) [10]: 20
- Foxtail, Giant plant response rating ([11]; 125 g ai/ha): 70
- Foxtail, Giant plant response rating ([11]; 500 g ai/ha): 100
- Plant response rating, Pigweed [12, 19]: 60
- Plant response rating, Pigweed [12, 20]: 100
- Plant response rating, Blackgrass [13, 19]: 0
- Plant response rating, Blackgrass [13, 20]: 60
- Ryegrass, Italian plant response rating ([14]; 125 g ai/ha): 30
- Ryegrass, Italian plant response rating ([14]; 500 g ai/ha): 50
- Plant response rating, Ryegrass, Italian [15, 19]: 30
- Plant response rating, Ryegrass, Italian [15, 20]: 40
- Barnyardgrass plant response rating ([16]; 125 g ai/ha): 0
- Barnyardgrass plant response rating ([16]; 500 g ai/ha): 80
- Plant response rating, Barnyardgrass (0 to 100 scale, 0 is no effect, 100 is complete control) [17]: 40

SMILES: Cc1ccc2c([C@@H](Nc3ncc(C(F)(F)F)c(N)n3)C3CC3)coc2c1 [Compound 91]
- Plant response rating, Ragweed [1, 19]: 0
- Plant response rating, Ragweed [1, 20]: 0
- Plant response rating, Foxtail, Giant [2, 19]: 0
- Plant response rating, Foxtail, Giant [2, 20]: 0
- Plant response rating, Ducksalad (0 to 100 scale, 0 is no effect, 100 is complete control) [3]: 0
- Plant response rating, Corn (corn (Zea mays); [19]): 0
- Plant response rating, Corn (corn (Zea mays); [20]): 0
- Plant response rating, Rice (0 to 100 scale, 0 is no effect, 100 is complete control) (rice (Oryza sativa)): 0
- Pigweed plant response rating ([4]; 125 g ai/ha): 0
- Pigweed plant response rating ([4]; 500 g ai/ha): 0
- Plant response rating, Kochia (kochia (Kochia scoparia) [5]; [19]): 0
- Plant response rating, Kochia (kochia (Kochia scoparia) [5]; [20]): 0
- Kochia plant response rating (kochia (Kochia scoparia) [6]; 125 g ai/ha): 0
- Kochia plant response rating (kochia (Kochia scoparia) [6]; 500 g ai/ha): 0
- Plant response rating, Wheat [7, 19]: 0
- Plant response rating, Wheat [7, 20]: 0
- Ragweed plant response rating ([8]; 125 g ai/ha): 0
- Ragweed plant response rating ([8]; 500 g ai/ha): 0
- Plant response rating, Galium [9, 19]: 0
- Plant response rating, Galium [9, 20]: 0
- Plant response rating, Sedge, Umbrella (0 to 100 scale, 0 is no effect, 100 is complete control) [10]: 0
- Foxtail, Giant plant response rating ([11]; 125 g ai/ha): 0
- Foxtail, Giant plant response rating ([11]; 500 g ai/ha): 0
- Plant response rating, Pigweed [12, 19]: 0
- Plant response rating, Pigweed [12, 20]: 0
- Plant response rating, Blackgrass [13, 19]: 0
- Plant response rating, Blackgrass [13, 20]: 0
- Ryegrass, Italian plant response rating ([14]; 125 g ai/ha): 0
- Ryegrass, Italian plant response rating ([14]; 500 g ai/ha): 30
- Plant response rating, Ryegrass, Italian [15, 19]: 0
- Plant response rating, Ryegrass, Italian [15, 20]: 0
- Barnyardgrass plant response rating ([16]; 125 g ai/ha): 0
- Barnyardgrass plant response rating ([16]; 500 g ai/ha): 0
- Plant response rating, Barnyardgrass (0 to 100 scale, 0 is no effect, 100 is complete control) [17]: 0

SMILES: C[C@@H](Nc1ncc(C(F)(F)F)c(N)n1)c1cc2cc(F)c(F)cc2o1 [Compounds 30]
- Plant response rating, Ragweed ([1]; 125 g ai/ha): 20
- Plant response rating, Ragweed ([1]; 500 g ai/ha): 80
- Plant response rating, Foxtail, Giant ([2]; 125 g ai/ha): 0
- Plant response rating, Foxtail, Giant ([2]; 500 g ai/ha): 30
- Plant response rating, Ducksalad (0 to 100 scale, 0 is no effect, 100 is complete control) [3]: 0
- Plant response rating, Corn (corn (Zea mays); 125 g ai/ha): 10
- Plant response rating, Corn (corn (Zea mays); 500 g ai/ha): 0
- Plant response rating, Rice (0 to 100 scale, 0 is no effect, 100 is complete control) (rice (Oryza sativa)): 0
- Plant response rating, Barnyardgrass ([18]; 125 g ai/ha): 0
- Plant response rating, Barnyardgrass ([18]; 500 g ai/ha): 30
- Plant response rating, Pigweed ([4]; 125 g ai/ha): 40
- Plant response rating, Pigweed ([4]; 500 g ai/ha): 100
- Plant response rating, Kochia (kochia (Kochia scoparia) [5]; 125 g ai/ha): 20
- Plant response rating, Kochia (kochia (Kochia scoparia) [5]; 500 g ai/ha): 80
- Plant response rating, Kochia (kochia (Kochia scoparia) [6]; 125 g ai/ha): 0
- Plant response rating, Kochia (kochia (Kochia scoparia) [6]; 500 g ai/ha): 30
- Plant response rating, Wheat ([7]; 125 g ai/ha): 0
- Plant response rating, Wheat ([7]; 500 g ai/ha): 0
- Plant response rating, Galium ([9]; 125 g ai/ha): 50
- Plant response rating, Galium ([9]; 500 g ai/ha): 60
- Plant response rating, Sedge, Umbrella (0 to 100 scale, 0 is no effect, 100 is complete control) [10]: 80
- Plant response rating, Foxtail, Giant ([11]; 125 g ai/ha): 0
- Plant response rating, Foxtail, Giant ([11]; 500 g ai/ha): 70
- Plant response rating, Pigweed ([12]; 125 g ai/ha): 100
- Plant response rating, Pigweed ([12]; 500 g ai/ha): 100
- Plant response rating, Blackgrass ([13]; 125 g ai/ha): 0
- Plant response rating, Blackgrass ([13]; 500 g ai/ha): 0
- Plant response rating, Ryegrass, Italian ([14]; 125 g ai/ha): 0
- Plant response rating, Ryegrass, Italian ([14]; 500 g ai/ha): 0
- Plant response rating, Ryegrass, Italian ([15]; 125 g ai/ha): 0
- Plant response rating, Ryegrass, Italian ([15]; 500 g ai/ha): 0
- Plant response rating, Barnyardgrass ([16]; 125 g ai/ha): 0
- Plant response rating, Barnyardgrass ([16]; 500 g ai/ha): 80
- Plant response rating, Barnyardgrass (0 to 100 scale, 0 is no effect, 100 is complete control) [17]: 0
